Data reported in ChEMBL document CHEMBL1143041, “On the cytotoxicity and status of oxidative stress of two novel synthesized tri-aza macrocyclic diamides as studied in the V79 cell lines” (Bioorg Med Chem, 2007).

Assays:
[1] = tested on: V79; experiment: Effect on dityrosine level in V79 cells at 30 uM after 24 hrs; type: functional, Cricetulus griseus
[2] = tested on: V79; experiment: Effect on malondialdehyde level in V79 cells at 30 uM after 24 hrs; type: functional, Cricetulus griseus
[3] = tested on: V79; experiment: Effect on superoxide dismutase activity in V79 cells at 30 uM after 24 hrs; type: cell-based; conditions: Cricetulus griseus
[4] = tested on: V79; experiment: Effect on 8-hydroxy-deoxyguanosine level in V79 cells at 30 uM after 24 hrs; type: functional, Cricetulus griseus
[5] = tested on: V79; experiment: Effect on catalase activity in V79 cells at 30 uM after 24 hrs; type: cell-based; conditions: Cricetulus griseus
[6] = tested on: V79; experiment: Effect on glutathione peroxidase activity in V79 cells at 30 uM after 24 hrs; type: cell-based; conditions: Cricetulus griseus
[7] = tested on: V79; experiment: Effect on superoxide dismutase activity in V79 cells at 8 mM after 24 hrs in presence of 30 uM alpha-tocopherol; type: cell-based; conditions: Cricetulus griseus
[8] = tested on: V79; experiment: Effect on superoxide dismutase activity in V79 cells at 0.5 mM after 24 hrs; type: cell-based; conditions: Cricetulus griseus
[9] = tested on: V79; experiment: Effect on dityrosine level in V79 cells at 8 mM after 24 hrs; type: functional, Cricetulus griseus
[10] = tested on: V79; experiment: Effect on dityrosine level in V79 cells at 2 mM after 24 hrs; type: functional, Cricetulus griseus
[11] = tested on: V79; experiment: Increase in glutathione peroxidase activity in V79 cells at 8 mM after 24 hrs; type: cell-based; conditions: Cricetulus griseus
[12] = tested on: V79; experiment: Effect on malondialdehyde level in V79 cells at 8 mM after 24 hrs in presence of 30 uM alpha-tocopherol; type: functional, Cricetulus griseus
[13] = tested on: V79; experiment: Increase in catalase activity in V79 cells at 1 mM after 24 hrs; type: cell-based; conditions: Cricetulus griseus
[14] = tested on: V79; experiment: Effect on 8-hydroxy-deoxyguanosine level in V79 cells at 0.5 mM after 24 hrs; type: functional, Cricetulus griseus
[15] = tested on: V79; experiment: Increase in glutathione peroxidase activity in V79 cells at 2 mM after 24 hrs; type: cell-based; conditions: Cricetulus griseus
[16] = tested on: V79; experiment: Effect on V79 cells assessed as viable cells at 2 mM in presence of 30 uM alpha-tocopherol; type: functional, Cricetulus griseus
[17] = tested on: V79; experiment: Effect on catalase activity in V79 cells at 8 mM after 24 hrs in presence of 30uM alpha-tocopherol; type: cell-based; conditions: Cricetulus griseus
[18] = tested on: V79; experiment: Increase in catalase activity in V79 cells at 8 mM after 24 hrs; type: cell-based; conditions: Cricetulus griseus
[19] = tested on: V79; experiment: Effect on malondialdehyde level in V79 cells at 4 mM after 24 hrs; type: functional, Cricetulus griseus
[20] = tested on: V79; experiment: Increase in superoxide dismutase activity in V79 cells at 8 mM after 24 hrs; type: cell-based; conditions: Cricetulus griseus
[21] = tested on: V79; experiment: Effect on glutathione peroxidase activity in V79 cells at 8 mM after 24 hrs in presence of 30 uM alpha-tocopherol; type: cell-based; conditions: Cricetulus griseus
[22] = tested on: V79; experiment: Effect on V79 cells assessed as viable cells at 4 mM; type: functional; conditions: Cricetulus griseus, read-out: Activity
[23] = tested on: V79; experiment: Increase in catalase activity in V79 cells at 4 mM after 24 hrs; type: cell-based; conditions: Cricetulus griseus
[24] = tested on: V79; experiment: Effect on dityrosine level in V79 cells at 8 mM after 24 hrs in presence of 30 uM alpha-tocopherol; type: functional, Cricetulus griseus
[25] = tested on: V79; experiment: Effect on V79 cells assessed as viable cells at 4 mM in presence of 30 uM alpha-tocopherol; type: functional, Cricetulus griseus
[26] = tested on: V79; experiment: Increase in superoxide dismutase activity in V79 cells at 4 mM after 24 hrs; type: cell-based; conditions: Cricetulus griseus
[27] = tested on: V79; experiment: Effect on catalase activity in V79 cells at 0.5 mM after 24 hrs; type: cell-based; conditions: Cricetulus griseus
[28] = tested on: V79; experiment: Effect on V79 cells assessed as viable cells at 2 mM; type: functional; conditions: Cricetulus griseus, read-out: Activity
[29] = tested on: V79; experiment: Effect on 8-hydroxy-deoxyguanosine level in V79 cells at 8 mM after 24 hrs; type: functional, Cricetulus griseus
[30] = tested on: V79; experiment: Effect on 8-hydroxy-deoxyguanosine level in V79 cells at 1 mM after 24 hrs; type: functional, Cricetulus griseus
[31] = tested on: V79; experiment: Increase in superoxide dismutase activity in V79 cells at 1 mM after 24 hrs; type: cell-based; conditions: Cricetulus griseus
[32] = tested on: V79; experiment: Effect on V79 cells assessed as necrotic cells at 2 mM; type: functional, Cricetulus griseus
[33] = tested on: V79; experiment: Effect on dityrosine level in V79 cells at 0.5 mM after 24 hrs; type: functional, Cricetulus griseus
[34] = tested on: V79; experiment: Effect on glutathione peroxidase activity in V79 cells at 0.5 mM after 24 hrs; type: cell-based; conditions: Cricetulus griseus
[35] = tested on: V79; experiment: Effect on dityrosine level in V79 cells at 1 mM after 24 hrs; type: functional, Cricetulus griseus
[36] = tested on: V79; experiment: Increase in glutathione peroxidase activity in V79 cells at 4 mM after 24 hrs; type: cell-based; conditions: Cricetulus griseus
[37] = tested on: V79; experiment: Effect on V79 cells assessed as apoptotic cells at 4 mM; type: functional, Cricetulus griseus
[38] = tested on: V79; experiment: Increase in catalase activity in V79 cells at 2 mM after 24 hrs; type: cell-based; conditions: Cricetulus griseus
[39] = tested on: V79; experiment: Effect on malondialdehyde level in V79 cells at 1 mM after 24 hrs; type: functional, Cricetulus griseus
[40] = tested on: V79; experiment: Effect on malondialdehyde level in V79 cells at 0.5 mM after 24 hrs; type: functional, Cricetulus griseus
[41] = Cytotoxicity against V79 cells assessed as viability at 8 mM after 24 hrs by MTT assay; type: cell-based, Cricetulus griseus; conditions: chinese hamster, read-out: Activity
[42] = tested on: V79; experiment: Effect on 8-hydroxy-deoxyguanosine level in V79 cells at 4 mM after 24 hrs; type: functional, Cricetulus griseus
[43] = tested on: V79; experiment: Effect on V79 cells assessed as apoptotic cells at 4 mM in presence of 30 uM alpha-tocopherol; type: functional, Cricetulus griseus
[44] = tested on: V79; experiment: Increase in superoxide dismutase activity in V79 cells at 2 mM after 24 hrs; type: cell-based; conditions: Cricetulus griseus
[45] = tested on: V79; experiment: Stimulation of ROS generation in V79 cells; type: functional, cell-based; conditions: Cricetulus griseus
[46] = tested on: V79; experiment: Effect on V79 cells assessed as apoptotic cells at 2 mM in presence of 30 uM alpha-tocopherol; type: functional, Cricetulus griseus
[47] = tested on: V79; experiment: Effect on V79 cells assessed as apoptotic cells at 2 mM; type: functional, Cricetulus griseus
[48] = tested on: V79; experiment: Effect on dityrosine level in V79 cells at 4 mM after 24 hrs; type: functional, Cricetulus griseus
[49] = tested on: V79; experiment: Effect on malondialdehyde level in V79 cells at 8 mM after 24 hrs; type: functional, Cricetulus griseus
[50] = tested on: V79; experiment: Effect on V79 cells assessed as necrotic cells at 4 mM; type: functional, Cricetulus griseus
[51] = tested on: V79; experiment: Increase in glutathione peroxidase activity in V79 cells at 1 mM after 24 hrs; type: cell-based; conditions: Cricetulus griseus
[52] = tested on: V79; experiment: Effect on 8-hydroxy-deoxyguanosine level in V79 cells at 2 mM after 24 hrs; type: functional, Cricetulus griseus
[53] = tested on: V79; experiment: Effect on malondialdehyde level in V79 cells at 2 mM after 24 hrs; type: functional, Cricetulus griseus
[54] = tested on: V79; experiment: Effect on 8-hydroxy-deoxyguanosine level in V79 cells at 8 mM after 24 hrs in presence of 30 uM alpha-tocopherol; type: functional, Cricetulus griseus

## Cc1c(C)c2c(c(C)c1O)CC[C@@](C)(CCC[C@H](C)CCC[C@H](C)CCCC(C)C)O2 [ALPHA-TOCOPHEROL]
[1]
  Activity: 0.42 nM/mg
[2]
  Activity: 7.51 nM/mg
[3]
  Activity: 13.2 U/mg
[4]
  Activity: 3.51
[5]
  Activity (microM/min/mg): 4.5
[6]
  Activity: 14.1 nmol/min/mg

## Cc1ccc2c(c1)[S+]([O-])c1cc(C)ccc1OCC(=O)NCCNCCNC(=O)CO2
[7]
  Activity: 23.5 U/mg
[8]
  Activity: 14.4 U/mg
[9]
  Activity: 6.41 nM/mg
[10]
  Activity: 1.61 nM/mg
[11]
  Activity: 41.1 nmol/min/mg
[12]
  Activity: 17.63 nM/mg
[13]
  Activity (microM/min/mg): 9.71
[14]
  Activity: 4.7
[15]
  Activity: 26.3 nmol/min/mg
[16]
  Activity: 71.2%
[17]
  Activity (microM/min/mg): 10.2
[18]
  Activity (microM/min/mg): 35.7
[19]
  Activity: 36.63 nM/mg
[20]
  Activity: 56.4 U/mg
[21]
  Activity: 22.4 nmol/min/mg
[22]
  viability at 4000 µM: 41.2%
[23]
  Activity (microM/min/mg): 27.2
[24]
  Activity: 2.21 nM/mg
[25]
  Activity: 52.6%
[26]
  Activity: 48.7 U/mg
[27]
  Activity (microM/min/mg): 6.81
[28]
  viability at 2000 µM: 54.4%
[29]
  Activity: 9.1
[30]
  Activity: 5.5
[31]
  Activity: 22.1 U/mg
[32]
  Activity: 4.6%
[33]
  Activity: 0.54 nM/mg
[34]
  Activity: 16.6 nmol/min/mg
[35]
  Activity: 0.75 nM/mg
[36]
  Activity: 33.4 nmol/min/mg
[37]
  Activity: 51.4%
[38]
  Activity (microM/min/mg): 15.3
[39]
  Activity: 16.53 nM/mg
[40]
  Activity: 8.72 nM/mg
[41]
  viability at 24 h, 8000 µM: 24%
[42]
  Activity: 8.5
[43]
  Activity: 32.7%
[44]
  Activity: 36.4 U/mg
[45]
  Activity: Dose-dependent effect
[46]
  Activity: 28.5%
[47]
  Activity: 40.2%
[48]
  Activity: 3.88 nM/mg
[49]
  Activity: 55.12 nM/mg
[50]
  Activity: 6.3%
[51]
  Activity: 22.1 nmol/min/mg
[52]
  Activity: 7.4
[53]
  Activity: 25.16 nM/mg
[54]
  Activity: 6.4

## Cc1ccc2c(c1)Sc1cc(C)ccc1OCC(=O)NCCNCCNC(=O)CO2
[7]
  Activity: 21.8 U/mg
[8]
  Activity: 18.8 U/mg
[9]
  Activity: 8.27 nM/mg
[10]
  Activity: 2.45 nM/mg
[11]
  Activity: 47.6 nmol/min/mg
[12]
  Activity: 15.01 nM/mg
[13]
  Activity (microM/min/mg): 8.47
[14]
  Activity: 4.4
[15]
  Activity: 30.6 nmol/min/mg
[16]
  Activity: 80.5%
[17]
  Activity (microM/min/mg): 8.77
[18]
  Activity (microM/min/mg): 27.2
[19]
  Activity: 35.691 nM/mg
[20]
  Activity: 49.2 U/mg
[21]
  Activity: 20.8 nmol/min/mg
[22]
  viability at 4000 µM: 58.2%
[23]
  Activity (microM/min/mg): 22.4
[24]
  Activity: 1.43 nM/mg
[25]
  Activity: 69.1%
[26]
  Activity: 40.1 U/mg
[27]
  Activity (microM/min/mg): 5.48
[28]
  viability at 2000 µM: 71.4%
[29]
  Activity: 6.9
[30]
  Activity: 5
[31]
  Activity: 21.3 U/mg
[32]
  Activity: 2.6%
[33]
  Activity: 0.74 nM/mg
[34]
  Activity: 18.6 nmol/min/mg
[35]
  Activity: 1.19 nM/mg
[36]
  Activity: 37.5 nmol/min/mg
[37]
  Activity: 37.3%
[38]
  Activity (microM/min/mg): 12.2
[39]
  Activity: 13.77 nM/mg
[40]
  Activity: 11.17 nM/mg
[42]
  Activity: 7.3
[43]
  Activity: 22.6%
[44]
  Activity: 31.2 U/mg
[45]
  Activity: Dose-dependent effect
[46]
  Activity: 17.4%
[47]
  Activity: 25.1%
[48]
  Activity: 4.31 nM/mg
[49]
  Activity: 52.55 nM/mg
[50]
  Activity: 4.1%
[51]
  Activity: 23.3 nmol/min/mg
[52]
  Activity: 5.8
[53]
  Activity: 21.46 nM/mg
[54]
  Activity: 5.76
